How the values were obtained:
HME cells = assay: cells; details: Homo sapiens, read-out: IC50 of paclitaxel (viability)
Procedure: (§2) All cell lines were exposed to increasing concentrations of paclitaxel and BRCA1-IRIS expression, and cells' viability was then measured.
(§3) Cell viability measurement. Cell viability under different experimental conditions was determined using the MTS assay. Briefly, cells (2.5×10^4 cells per well) were seeded in 96-well plates and incubated overnight at 37° C. in 10% humidified CO2 atmosphere. The next day they were incubated with varying concentration of peptide, or inhibitors for 24 hours at 37° C. Cell viability was determined using cell Titer 96® Aqueous (Promega, Madison, Wis., USA) following manufacturer's instructions. Cell viability (%) was expressed as a ratio of treated cells to control cells×100. […] Each experiment was done in triplicate, repeated three separate times.

MDA-MB-231 cells = assay: cells; details: Homo sapiens, MDA-MB-231, read-out: IC50 of paclitaxel (viability)
Procedure: as §2
(§4) Stable clones were then exposed to 0, 10 or 20 μM of EGFR (Erlotinib), ErbB2 (CP-724714), PI3′K/AKT (LY294002), p38 (SB203580), ERK (PD98059) or JNK (SP600125) inhibitors for 24 hours.

BRCA1-IRIS and survivin = assay: IHC of MDA-MB-468 tumors for BRCA1-IRIS and survivin; type: in vivo, mice; details: MDA-MB-468 tumors after treatment
Text: To study that on the molecular level, sections from these tumors were stained with H&E or for BRCA1-IRIS or survivin using immunohistochemistry. […] Accordingly, it is proposed that inactivating BRCA1-IRIS in TNBC patients might sensitize to lower paclitaxel concentrations to avoid the adverse side effects and also to prevent the recurrence of these tumors at a later point.
Immunohistochemistry (IHC). Breast tissue microarrays comprised of normal, DCIS, invasive and metastatic were purchased from US Biomax, Inc. Paraffin embedded tissue sections were de-waxed in xylene and rehydrated in alcohol. Antigen-retrieval: for FOXO3a and survivin was by heating the slides in citrate buffer (10 μM, pH 6.0) using microwave (Power level 4) for 10 minutes, for BRCA1-IRIS by incubating slides in pepsin (10 μM) for 20 min at 37° C. Endogenous peroxidase activity was suppressed by treating the slides with 3% H2O2 for 10 min. Slides were then incubated for 1 hour at room temperature with antibodies to human FOXO3a or survivin (Cell Signaling Technology, USA 1:400), or overnight at 4° C. with monoclonal anti-human BRCA1-IRIS (1:75). Vectastain Elite ABC Kit was used to develop the staining using horseradish peroxidase labeled secondary antibodies (1 hour at room temperature).

MDA-MB-468 cells = assay: cells; details: Homo sapiens, MDA-MB-468, read-out: IC50 of paclitaxel (viability)
Procedure: as §2, §4

BT549 cells = assay: cells; details: Homo sapiens, BT-549, read-out: IC50 of paclitaxel (viability)
Procedure: as §2, §3

HME/IRIS cells = assay: cells; details: Homo sapiens, read-out: IC50 of paclitaxel (viability)
MDA-MB-468 tumors = assay: In vivo efficacy on established MDA-MB-468 tumors; set-up: species or system mice; details: 12 days; paclitaxel 10 mg/kg i.p., every third day, four injections
Procedure: Nude 6-8 weeks female mice were injected with 2×10^6 of MDA-MB-468 cells in the 2nd left and 4th right mammary fat pads. When all tumors reached ˜0.1 cm^3 in volume, mice were divided into four groups, one received vehicles (i.e. DMSO injected intraperitoneally [i.p.] and scrambled peptide injected directly into tumors [i.t.]), another received paclitaxel (10 mg/kg, i.p.), the third received IRIS peptide at (10 mg/kg, i.t.), and the last received paclitaxel and IRIS peptide at half the concentrations, injected as above. Drugs were delivered every third day for total of four injections.
In Vivo efficacy of BRCA1-IRIS-inhibitory peptide. Six to eight week old female athymic SCID mice were injected in the second right and the fourth left mammary gland with 2.5×10^6 of MDAMB468 cells. Tumor growth was followed daily until tumors reached 100 mm^3. At this time mice were randomly grouped into four different groups that were injected: a) with DMSO (i.p.) and scrambled peptide (10 mg/kg) intra-tumoral (i.t.), b) injected with IRIS peptide (10 mg/kg, i.t.), c) injected with paclitaxel (10 mg/kg, i.p.), d) injected with IRIS peptide (5 mg/kg, i.t.), and paclitaxel (5 mg/kg, i.p.). […] Change in tumor volume was measured to monitor the efficacy of the treatments using caliper and is represented as percentage of volume at day 0 of treatment. […]

[1] = test system: HME, HME/IRIS, MDA-MB-231, MDA-MB-468 and BT549 cells; assay: Survival of breast cell lines with IRIS peptide, paclitaxel or both; type: cell-based, human; details: all cell lines, 24 hours
Procedure: (§1) To investigate whether inactivating BRCA1-IRIS could sensitize TNBC to paclitaxel-induced cell death, HME cells were exposed to 0.5 μM, while HME/IRIS, MDA-MB-231, MDA-MB-468 and BT549 cells were exposed to 5 μM of IRIS peptide alone or with 5, 10 or 20 μM of paclitaxel for 24 hours. […] Again, IRIS peptide alone at these concentrations led to 50% reduction in survival of all cell lines. […] Indeed, in the presence of IRIS peptide >60%, >70% and >90% reduction in the survival of all cell lines in the presence of 5, 10 and 20 μM of paclitaxel, respectively (FIG. 84).
Cell viability measurement. Cell viability under different experimental conditions was determined using the MTS assay. Briefly, cells (2.5×10^4 cells per well) were seeded in 96-well plates and incubated overnight at 37° C. in 10% humidified CO2 atmosphere. The next day they were incubated with varying concentration of peptide, or inhibitors for 24 hours at 37° C. Cell viability was determined using cell Titer 96® Aqueous (Promega, Madison, Wis., USA) following manufacturer's instructions. Cell viability (%) was expressed as a ratio of treated cells to control cells×100. Growth inhibition was also determined by manually counting cells in five different microscopic fields. Change in cell numbers (fold) was expressed as a ratio of the means of these recording of treated cells compared to control cells×100. Each experiment was done in triplicate, repeated three separate times.

BRCA1-IRIS = BRCA1-IRIS expression in breast cells (Western); type: cell-based, human
Procedure: HME and HME/IRIS cells were treated with 10, 20 and 50 μM of paclitaxel for 24 hours. Compared to HME/IRIS cells, untreated HME cells express very low level of BRCA1-IRIS (FIG. 68, left). […] Both EGF and NRG1, which were secreted at higher levels from untreated HME/IRIS cells, remained high after paclitaxel (until ˜50 μM, FIG. 68, left), whereas in HME cells, both were induced by low paclitaxel treatment (FIG. 68, left). Consistently, in HME/IRIS cells EGFR was phosphorylated on Y1173 (activated by EGF when EGFR is in complex with ErbB2) and ErbB2 on Y1248 (activated by NRG1 when ErbB2 is in complex with ErbB3) remained the same after paclitaxel treatment (until ˜50 μM, FIG. 68, left). Phosphorylated EGFR-Y1173 and ErbB2-Y1248 was only observed in paclitaxel treated HME cells, especially at low concentration (FIG. 68, left).
Survived/paclitaxel-resistant cells were then propagated in the absence of paclitaxel and analyzed. Again, the intrinsically high level of BRCA1-IRIS was not affected by paclitaxel in HME/IRIS cells (FIG. 69, left). […] The expressions of EGFR, ErbB2 and ErbB3 were high in HME/IRIS and HME cells (FIG. 69, left). Despite an intrinsic increase in HME/IRIS and paclitaxel-acquired increase in HME cells in AKT activation, FOXO inactivation/degradation and thus activation increase in CyclinD1, survivin, Bcl-2, Bcl-xL and NF-κB was observed (FIG. 69, right).
To test that hypothesis, an intron 11 peptide (right in FIG. 26) fused to a cell/nucleus penetrating signal at its N-terminus (left in FIG. 26) was synthesized (hereafter IRIS peptide). First, to assess the effect of this IRIS peptide, equal numbers of HME, HME/IRIS, MDA-MB-231, MDA-MB-468 and BT549 cells were exposed to increasing concentrations of scrambled or IRIS peptide for 48 hours. […] It is possible that preventing BRCA1-IRIS-X complex formation destabilizes BRCA1-IRIS and perhaps leads to its degradation.
as §1
To relate the effect of IRIS peptide on cell survival to the effect of BRCA1-IRIS on AKT and ERK survival pathways, MDA-MB-231 and MDA-MB-468 were treated with vehicle, 5 μM of IRIS peptide, 10 μM LY294002, 10 μM PD98059 for 24 hours or were transfected with BRCA1-IRIS siRNA for 72 hours.

CC(=O)O[C@H]1C(=O)[C@@]2(C)[C@H]([C@H](OC(=O)c3ccccc3)[C@]3(O)C[C@H](OC(=O)[C@H](O)[C@@H](NC(=O)c4ccccc4)c4ccccc4)C(C)=C1C3(C)C)[C@]1(OC(C)=O)CO[C@@H]1C[C@@H]2O [paclitaxel] was tested, and the IC50 (HME cells) was roughly 5 µM, the IC50 (MDA-MB-231 cells) was greater than 50 µM and the “BRCA1-IRIS and survivin expression in tumors (IHC)” value (BRCA1-IRIS and survivin) was “significantly increase BRCA1-IRIS and survivin expression”. The IC50 (MDA-MB-468 cells) was less than 20 µM, the IC50 (BT549 cells) was roughly 35 µM and the IC50 (HME/IRIS cells) was roughly 50 µM. The “tumor size relative to control tumors” value (MDA-MB-468 tumors) was “half the size of the control tumors”, the reduction in survival ([1]; paclitaxel alone at 5 μM) was roughly 50% and the reduction in survival ([1]; paclitaxel alone at 10 μM) was roughly 60%. The reduction in survival ([1]; paclitaxel alone at 20 μM) was roughly 70%, the “BRCA1-IRIS expression in HME cells” value (BRCA1-IRIS; 1 μM of paclitaxel for 1 or 3 weeks) was “acquired-induction in BRCA1-IRIS expression was detected” and the “BRCA1-IRIS expression in HME cells” value (BRCA1-IRIS; 10 and 20 μM paclitaxel, 24 hours) was “significantly upregulated BRCA1-IRIS expression”. For the same compound, the “BRCA1-IRIS expression in HME/IRIS cells” value (BRCA1-IRIS; paclitaxel 24 hours, until ~50 μM) was “did not alter the expression of BRCA1-IRIS”.
